Data: patent US4638070A, “Heterocyclic amino-alcohol derivatives” (Continental Pharma, priority 1980, dated 1987)

How the values were obtained:
[1] = system: unanaesthetized, hypertension-suffering rat; assay: Antihypertensive activity (systolic arterial pressure), oral; type: in vivo; settings: 60 mg/kg, hypertensive rat, 3 hours
Method in brief: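 Conscious hypertensive rats given compound orally at 60 mg/kg; systolic arterial pressure measured every 30 min for 2 h pre-dose and 3 h post-dose. Scored O (no fall), + (<10 mm Hg), ++ (10–20 mm Hg), +++ (>20 mm Hg).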

[2] = Acute toxicity, oral, LD50 (Litchfield and Wilcoxon); settings: mouse, in vivo, fasted male mice, confidence limits p=95% in brackets
Protocol: (1) The acute toxicity was determined on fasted male mice. The tested substances were orally administered and LD50 values (lethal dose for 50% of animals) were calculated according to the method of Litchfield and Wilcoxon (J. Pharmacol. exp. Ther. 96, 94-113, 1949). These LD50 values are given in mg/kg and also, when possible, with their confidence limits for p=95%.

[3] = system: femoral artery; assay: Vasodilator activity, femoral artery (technique of perfused paw); type: in vivo; design: key: O: no action; +: slight activity; ++: effect equal to half the effect of papaverine; +++: effect equal to that of papaverine; ++++: effect higher than that of papaverine; settings: intra-arterial, 30 mg/kg, anaesthetized dog, vs papaverine at same dose
Protocol: (3) The vasodilator activity was measured at the level of femoral artery on anaesthetized dog (technique of perfused paw). The tested substances were given intra-arterially at the rate of 30 mg/kg. Results are expressed with respect to papaverine tested at the same dose.
++: effect equal to half the effect of papaverine.
+++: effect equal to that of papaverine.
++++: effect higher than that of papaverine.

[4] = system: guinea-pig ileum (histamine contractions); assay: Antispasmodic activity in vitro, contractions caused by histamine; settings: added 15 minutes before spasm-producing agent
Protocol: (§1) (4) The antispasmodic activity was measured in vitro, on guinea-pig ileum, the contractions of which were caused by histammne (Hist.), acetylcholine (Achol) or barium chloride (BaCl2). The tested products were added to perfusion bath 15 minutes before the spasm-producing agents.
(§2) The dose is given in micograms (μg) per ml of bath causing complete spasm inhibition.

[5] = system: guinea-pig ileum (acetylcholine contractions); assay: Antispasmodic activity in vitro, contractions caused by acetylcholine; settings: added 15 minutes before spasm-producing agent
Protocol: as §1, §2

| SMILES | ANTIHYPERTENSIVE ACTIVITY [1] | LD50 [2] | VASODILATOR ACTIVITY [3] | ANTISPASMODIC ACTIVITY HIST. (dose causing complete spasm inhibition) [4] | ANTISPASMODIC ACTIVITY ACHOL (dose causing complete spasm inhibition) [5] |
| --- | --- | --- | --- | --- | --- |
| CC1CSc2ccc(C(O)C(C)NCCOc3ccccc3)cc2C1 (centres unmarked) [No 49] | +++ (reduction higher than 20 mm Hg) | ~3700 mg/kg | +++ | 3.3 μg per ml | 1.7 μg per ml |
| Cc1ccc(OCCNC(C)C(O)c2ccc3c(c2)CCCS3)cc1 (centres unmarked) [No 54] | ++ (reduction of 10 to 20 mm Hg) | > 4000 mg/kg | +++ | 3.3 μg per ml | 3.3 μg per ml |
| CCCCCCCCNC(C)C(O)c1ccc2c(c1)CC(C)O2 (centres unmarked) [No 55] | +++ (reduction higher than 20 mm Hg) | 350 mg/kg | +++ | 3.3 μg per ml | 8.3 μg per ml |
| CC(NCCCc1ccccc1)C(O)c1ccc2c(c1)CCS2 (centres unmarked) [No 57] | ++ (reduction of 10 to 20 mm Hg) | > 2000 mg/kg | +++ | 1.7 μg per ml | 1.7 μg per ml |
| CC1Cc2cc(C(O)C(C)NCCOc3ccc(Cl)cc3)ccc2S1 (centres unmarked) [No 58] | +++ (reduction higher than 20 mm Hg) | > 4000 mg/kg | +++ | 1.7 μg per ml | 1.7 μg per ml |
| CC(NCCCSc1ccccc1)C(O)c1ccc2c(c1)CCS2 (centres unmarked) [No 60] | +++ (reduction higher than 20 mm Hg) | > 2000 mg/kg | +++ | 3.3 μg per ml | 1.7 μg per ml |
| CC1Cc2cc(C(O)C(C)NCCOc3ccccc3)ccc2S1 (centres unmarked) [No 61] | +++ (reduction higher than 20 mm Hg) | ~4000 mg/kg | ++ | 3.3 μg per ml | 3.3 μg per ml |
| CC1Cc2cc(C(O)C(C)NCCCCc3ccc(Cl)cc3)ccc2O1 (centres unmarked) [No 65] | +++ (reduction higher than 20 mm Hg) | 160 mg/kg | +++ | 0.8 μg per ml | 1.7 μg per ml |
| CC1Cc2cc(C(O)C(C)NCCCCc3ccc(Cl)cc3)ccc2S1 (centres unmarked) [No 68] | +++ (reduction higher than 20 mm Hg) | < 500 mg/kg | +++ | 3.3 μg per ml | 0.8 μg per ml |
| CC1Cc2cc(C(O)C(C)NCCCCc3ccccc3)ccc2O1 (centres unmarked) [No 70] | +++ (reduction higher than 20 mm Hg) | 285 mg/kg | ++ | 1.7 μg per ml | 1.7 μg per ml |
| CC(NCCCOc1ccccc1)C(O)c1ccc2c(c1)CCCS2 (centres unmarked) [No 75] | +++ (reduction higher than 20 mm Hg) | > 4000 mg/kg | +++ | 0.8 μg per ml | 1.7 μg per ml |
| CC(NCCCc1ccc(Cl)cc1)C(O)c1ccc2c(c1)CCCS2 (centres unmarked) [No 78] | +++ (reduction higher than 20 mm Hg) | 725 mg/kg | ++++ | 0.8 μg per ml | 1.7 μg per ml |
| CCCCSCCCNC(C)C(O)c1ccc2c(c1)CCCS2 (centres unmarked) [No 80] | +++ (reduction higher than 20 mm Hg) | 5000 mg/kg | ++ | 0.8 μg per ml | 1.7 μg per ml |
| CC1Cc2cc(C(O)C(C)NCCOc3ccc(Cl)cc3)ccc2O1 (centres unmarked) [No 84] | +++ (reduction higher than 20 mm Hg) | 1200 mg/kg | +++ | 8.3 μg per ml | 3.3 μg per ml |
| CC1Cc2cc(C(O)C(C)NCCOc3ccccc3)ccc2O1 (centres unmarked) [No 89] | +++ (reduction higher than 20 mm Hg) | 550 mg/kg | +++ | 8.3 μg per ml | 8.3 μg per ml |
| CC(NCCCCc1ccccc1)C(O)c1ccc2c(c1)SCCS2 (centres unmarked) [No 100] | +++ (reduction higher than 20 mm Hg) | > 2000 mg/kg | ++++ | 8.3 μg per ml | 1.7 μg per ml |
| CC(NCCCC(=O)c1ccc(F)cc1)C(O)c1ccc2c(c1)CCCS2 (centres unmarked) [No 102] | +++ (reduction higher than 20 mm Hg) | > 4000 mg/kg | ++ | 0.8 μg per ml | 0.3 μg per ml |
| CC1Cc2cc(C(O)C(C)NCCCC(=O)c3ccc(F)cc3)ccc2O1 (centres unmarked) [No 105] | +++ (reduction higher than 20 mm Hg) | ~360 mg/kg | +++ | 3.3 μg per ml | 3.3 μg per ml |
| CC1Cc2cc(C(O)C(C)NCCSc3ccccc3)ccc2S1 (centres unmarked) [No 106] | ++ (reduction of 10 to 20 mm Hg) | > 4000 mg/kg | +++ | 1.7 μg per ml | 1.7 μg per ml |
